Four compounds from patent publication US11044911B2, “Phenoxyurea compound and pest control agent” (Nippon Soda Co., Ltd., priority 2018, dated 2021) can be followed below.

Each structure is given as a SMILES string.

One series has as its system Tetranychus urticae. The series is described as follows: Test Example 10: efficacy test against Tetranychus urticae (soil irrigation test). The format is in vivo. To be noted: 25 ml of 400 ppm, strawberry seedling, 19 days after inoculation. As to the method: (§1) 5 parts by weight of the compound of the present invention, 93.6 parts by weight of dimethylformamide and 1.4 parts by weight of polyoxyethylene alkylaryl ether were mixed and dissolved to prepare an emulsion (I) containing 5% of an active ingredient.
The emulsion (I) was diluted with tap water to prepare a drug solution having a concentration of 400 ppm. A plastic potted strawberry seedling was subjected to a plant foot irrigation treatment with 25 ml of the drug solution, and placed in a thermostatic chamber at a temperature of 25° C. and a humidity of 60%. Three days after the irrigation treatment, 15 adult females of Tetranychus urticae were inoculated on each seedling. The number of surviving insects 19 days after inoculation was investigated, and the control value was obtained by the following formula. The test was repeated twice. Control value (%)=100−{(Nt)/(Nc)×100}
The letters in the formula represent the following.
Nc: Number of surviving insects in the untreated group
Nt: Number of surviving insects in the treated group

Series [1] relates to drug-resistant strains of Tetranychus urticae. The series is described as follows: Test Example 13: efficacy test against drug-resistant strains of Tetranychus urticae. It counts as in vivo. Conditions: 10 days.
Text: as §1
(§2) Insecticidal rate (%)=(number of dead insects/number of tested insects)×100
(§3) Efficacy tests against seven drug-resistant strains of Tetranychus urticae collected from various parts of Japan (one strain from Shizuoka Prefecture, Aomori Prefecture and Fukuoka Prefecture, and two strains from Chiba Prefecture and Nagano Prefecture) were conducted in the following manner.
(§4) 8 adult females of drug-resistant strains of spider mites were inoculated on kidney bean plant leaves placed in a petri dish. Then, the emulsion (I) was diluted with water so that the concentration of the compound was 37.5 ppm or 9.4 ppm to obtain a chemical. This chemical was sprayed onto the kidney bean plant leaves with a rotary spray tower. The kidney bean plant leaves were placed in a thermostatic chamber at a temperature of 25° C. and a humidity of 65%. The life and death of the spider mite were investigated when 10 days had passed after the spraying, and the insecticidal rate was calculated.

Another series deals with eggplants. The series is described as follows: Test Example 14: phytotoxicity test on eggplants. The format is in vivo, eggplant. To be noted: 300 ppm spray; for Eggplant; 6- to 7-leaf stage After 14 days Leaf Phytotoxicity index: index 0 (no phytotoxicity) to 10 (plant death). The text has this:
A sufficient amount of chemical having a compound concentration of 300 ppm was sprayed onto eggplants at the 6- to 7-leaf stage using a glass nozzle, and they were left to stand in a greenhouse. The presence or absence of phytotoxicity was investigated after being left to stand for 14 days.
(§5) The symptoms of phytotoxicity were deformation and discoloration of leaves.

Series [2] concerns drug resistant strains of spider mites. The series is described as follows: Test Example 13: summary over all drug resistant strains of spider mites. To be noted: 9.4 ppm, all strains tested. It counts as in vivo, Tetranychus urticae, Panonychus citri. As to the method: as §3, §4
(§6) In addition, an efficacy test against a drug-resistant strain of Panonychus citri collected in Wakayama Prefecture was conducted in the following manner.
8 adult females of a drug resistant strain of Panonychus citri were inoculated on mandarin orange leaves placed in a petri dish. […] The life and death of the spider mite were investigated when 10 days had passed after the spraying, and the corrected insecticidal rate was calculated.

Series [3] deals with drug-resistant strain of Panonychus citri collected in Wakayama Prefecture. The series is described as follows: Test Example 13: efficacy test against drug-resistant strain of Panonychus citri. The format is in vivo. To be noted: 10 days, corrected insecticidal rate. As to the method: as §1, §2, §6
8 adult females of a drug resistant strain of Panonychus citri were inoculated on mandarin orange leaves placed in a petri dish. Then, the emulsion (I) was diluted with water so that the concentration of the compound was 37.5 ppm or 9.4 ppm to obtain a chemical. This chemical was sprayed onto the mandarin orange leaves with a rotary spray tower. The mandarin orange leaves were placed in a thermostatic chamber at a temperature of 25° C. and a humidity of 65%. The life and death of the spider mite were investigated when 10 days had passed after the spraying, and the corrected insecticidal rate was calculated.

Another series deals with cucumber plants. The series is described as follows: Test Example 14: phytotoxicity test on cucumber plants. It counts as in vivo. Conditions: 300 ppm spray; for Cucumber; 1.5-leaf stage After 14 days Leaf Phytotoxicity index: index 0 (no phytotoxicity) to 10 (plant death). The protocol: A test for phytotoxicity on cucumber plants was conducted as follows. A sufficient amount of chemical having a compound concentration of 300 ppm was sprayed onto cucumber plants at the 1.5-leaf stage using a glass nozzle, and they were left to stand in a greenhouse. The presence or absence of phytotoxicity was investigated after being left to stand for 14 days.
as §5

As to `CCN(Oc1cc(Br)cc(C(F)(F)F)c1)C(=O)NC(C)(C)C(=O)NCC(F)(F)F` [Compound 1-1, 2-{3-[3-Bromo-5-(trifluoromethyl)phenoxy]-3-ethylureido}-2-methyl-N-(2,2,2-trifluoroethyl)propanamide], in the series on Tetranychus urticae, the “control value against Tetranychus urticae” value is at least 90%. Besides, in series [1] (9.4 ppm), the “insecticidal rate, Low-susceptible Tetranychus urticae 1 from Nagano Prefecture” value was found to be 100%; the “insecticidal rate, Low-susceptible Tetranychus urticae 2 from Chiba Prefecture” value is reported as 97%; the “insecticidal rate, Low-susceptible Tetranychus urticae 2 from Nagano Prefecture” value is 99%; the “insecticidal rate, Low-susceptible Tetranychus urticae from Aomori Prefecture” value (shortened to “insecticidal rate … from Aomori Prefecture”) is given as 93%. Moreover, in series [1] (9.4 ppm), the “insecticidal rate, Low-susceptible Tetranychus urticae from Fukuoka Prefecture” value (from here on “insecticidal rate … from Fukuoka Prefecture”) worked out at 96%; the “insecticidal rate, Low-susceptible Tetranychus urticae from Shizuoka Prefecture” value is 96%; the “insecticidal rate, Low-susceptible Tetranyclus urticae 1 from Chiba Prefecture” value is listed as 100%. Further, in series [1] (37.5 ppm), the “insecticidal rate, Low-susceptible Tetranychus urticae 1 from Nagano Prefecture” value came out at 100%; the “insecticidal rate, Low-susceptible Tetranychus urticae 2 from Chiba Prefecture” value was 100%; the “insecticidal rate, Low-susceptible Tetranychus urticae 2 from Nagano Prefecture” value was 100%; the “insecticidal rate … from Aomori Prefecture” value is on record as 100%. In series [1] (37.5 ppm), the “insecticidal rate … from Fukuoka Prefecture” value is 99%; the “insecticidal rate, Low-susceptible Tetranychus urticae from Shizuoka Prefecture” value is given as 100%; the “insecticidal rate, Low-susceptible Tetranyclus urticae 1 from Chiba Prefecture” value came out at 100%. For the same compound, in the series on eggplants (14 days), the phytotoxicity on eggplants result is on record as “no phytotoxicity”. For the same compound, the “Eggplant; 6- to 7-leaf stage After 14 days Leaf Phytotoxicity index” value with eggplants (Repetition A) is on record as 0. Besides, the “Eggplant; 6- to 7-leaf stage After 14 days Leaf Phytotoxicity index” value with eggplants (Repetition B) was 0. For the same compound, the “efficacy against all drug resistant strains of spider mites” value in series [2] is at least 90. In series [3] (9.4 ppm), the “insecticidal rate, Low-susceptible Panonychus citri from Wakayama Prefecture” value (from here on “insecticidal rate … from Wakayama Prefecture”) is listed as 99%. For the same compound, the “insecticidal rate … from Wakayama Prefecture” value in series [3] (37.5 ppm) was 100%. For the same compound, in the series with cucumber plants (14 days), the “phytotoxicity on cucumber plants” value was “no phytotoxicity”. Moreover, the “Cucumber; 1.5-leaf stage After 14 days Leaf Phytotoxicity index” value in the series on cucumber plants (Repetition A) was 0. Further, the “Cucumber; 1.5-leaf stage After 14 days Leaf Phytotoxicity index” value in the series with cucumber plants (Repetition B) is reported as 0.
`CCN(Oc1cc(Cl)cc(Br)c1)C(=O)NC(C)(C)C(=O)NCC(F)(F)F` [Compound (D)]: in series [1] (9.4 ppm), the “insecticidal rate, Low-susceptible Tetranychus urticae 1 from Nagano Prefecture” value was found to be 73%; the “insecticidal rate, Low-susceptible Tetranychus urticae 2 from Chiba Prefecture” value is 72%; the “insecticidal rate, Low-susceptible Tetranychus urticae 2 from Nagano Prefecture” value worked out at 45%; the “insecticidal rate, Low-susceptible Tetranyclus urticae 1 from Chiba Prefecture” value is 32%. Also, in series [1] (37.5 ppm), the “insecticidal rate, Low-susceptible Tetranychus urticae 1 from Nagano Prefecture” value amounted to 99%; the “insecticidal rate, Low-susceptible Tetranychus urticae 2 from Chiba Prefecture” value is listed as 87%; the “insecticidal rate, Low-susceptible Tetranychus urticae 2 from Nagano Prefecture” value is 96%; the “insecticidal rate, Low-susceptible Tetranyclus urticae 1 from Chiba Prefecture” value is given as 77%. Further, the “Eggplant; 6- to 7-leaf stage After 14 days Leaf Phytotoxicity index” value in the series on eggplants (Repetition A) worked out at 3. For the same compound, the “Eggplant; 6- to 7-leaf stage After 14 days Leaf Phytotoxicity index” value in the series on eggplants (Repetition B) is reported as 3. Besides, the “Cucumber; 1.5-leaf stage After 14 days Leaf Phytotoxicity index” value with cucumber plants (Repetition A) is 5. Besides, in the series with cucumber plants (Repetition B), the “Cucumber; 1.5-leaf stage After 14 days Leaf Phytotoxicity index” value was found to be 7.
For the compound `CCN(Oc1cc(Br)nc(Br)c1)C(=O)NC(C)(C)C(=O)NCC(F)(F)F` [Compound (G)], the “insecticidal rate, Low-susceptible Tetranychus urticae 1 from Nagano Prefecture” value is recorded as 78% in series [1] (9.4 ppm) and 96% in series [1] (37.5 ppm). For the same compound, the entries for the “insecticidal rate, Low-susceptible Tetranychus urticae 2 from Chiba Prefecture” value in series [1] (9.4 ppm) and in series [1] (37.5 ppm) were 58% and 91%, respectively. Also, the “insecticidal rate, Low-susceptible Tetranychus urticae 2 from Nagano Prefecture” value is 70% in series [1] (9.4 ppm) and 88% in series [1] (37.5 ppm). In addition, the entries for the “insecticidal rate … from Aomori Prefecture” value in series [1] (9.4 ppm) and in series [1] (37.5 ppm) were 66% and 97%, respectively. The “insecticidal rate, Low-susceptible Tetranyclus urticae 1 from Chiba Prefecture” value was determined as 53% in series [1] (9.4 ppm) and 98% in series [1] (37.5 ppm). Also, the “Eggplant; 6- to 7-leaf stage After 14 days Leaf Phytotoxicity index” value in the series on eggplants (Repetition A) and in the series on eggplants (Repetition B) was 2 each time. The results for the “insecticidal rate … from Wakayama Prefecture” value in series [3] (9.4 ppm) and in series [3] (37.5 ppm) were 60% and 95%, respectively. Moreover, the “Cucumber; 1.5-leaf stage After 14 days Leaf Phytotoxicity index” value in the series with cucumber plants (Repetition A) and in the series with cucumber plants (Repetition B) was 2 throughout.
As to `CCN(Oc1ccnc(C(F)(F)F)c1)C(=O)NC(C)(C)C(=O)NCC(F)(F)F` [Compound (H)], the entries for the “insecticidal rate … from Fukuoka Prefecture” value in series [1] (9.4 ppm) and in series [1] (37.5 ppm) were 45% and 96%, respectively. In addition, the “Eggplant; 6- to 7-leaf stage After 14 days Leaf Phytotoxicity index” value with eggplants (Repetition A) and with eggplants (Repetition B) was 2 throughout. Moreover, the figures for the “insecticidal rate … from Wakayama Prefecture” value in series [3] (9.4 ppm) and in series [3] (37.5 ppm) were 78% and 96%, respectively.
